Data as given in patent US10526314B2, “Hydroxyalkyl-substituted heteroaryltriazole derivatives and uses thereof” (BAYER AKTIENGESELLSCHAFT, priority 2016, dated 2020).

What was measured:
human V2 receptor = molecular target: T1, human V2 receptor (Homo sapiens, UniProt P30518); assay: Cellular in vitro assay for determining vasopressin receptor activity (V2, CRE-luciferase); format: cell-based; conditions: CHO cell line transfected with human V2 receptor; [Arg8]-vasopressin at EC50 concentration; read-out: IC50 hV2
T1 construct: expressed in transfected cells; host or cells: CHO K1 (ATCC) expressing firefly luciferase under a CRE-responsive promoter
T1 sequence (P30518 whole entry): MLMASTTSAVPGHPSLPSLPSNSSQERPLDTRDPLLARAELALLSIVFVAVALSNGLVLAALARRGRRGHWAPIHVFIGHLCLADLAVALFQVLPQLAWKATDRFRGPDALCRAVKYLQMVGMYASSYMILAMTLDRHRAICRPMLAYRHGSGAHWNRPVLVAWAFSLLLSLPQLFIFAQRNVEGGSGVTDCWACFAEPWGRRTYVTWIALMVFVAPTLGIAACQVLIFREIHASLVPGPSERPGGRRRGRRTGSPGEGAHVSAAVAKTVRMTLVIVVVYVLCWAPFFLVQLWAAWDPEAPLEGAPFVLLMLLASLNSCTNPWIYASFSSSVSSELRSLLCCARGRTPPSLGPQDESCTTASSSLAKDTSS
Description: (§1) B-1. Cellular In Vitro Assay for Determining Vasopressin Receptor Activity
(§2) The identification of agonists and antagonists of the V1a and V2 vasopressin receptors from humans, rats and dogs as well as the quantification of the activity of the compounds of the invention is carried out using recombinant cell lines. These cell lines originally derive from a hamster's ovary epithelial cell (Chinese Hamster Ovary, CHO K1, ATCC: American Type Culture Collection, Manassas, Va. 20108, USA). The test cell lines constitutively express the human, rat or dog V1a or V2 receptors. In case of the Gαq-coupled V1a receptors, cells are also stably transfected with a modified form of the calcium-sensitive photoproteins aequorin (human and rat V1a) or obelin (dog V1a), which, after reconstitution with the cofactor coelenterazine, emit light when there are increases in free calcium concentrations [Rizzuto R, Simpson A W, Brini M, Pozzan T, Nature 358, 325-327 (1992); Illarionov B A, Bondar V S, Illarionova V A, Vysotski E S, Gene 153 (2), 273-274 (1995)]. The resulting vasopressin receptor cells react to stimulation of the recombinantly expressed V1a receptors by intracellular release of calcium ions, which can be quantified by the resulting photoprotein luminescence. The Gs-coupled V2 receptors are stably transfected into cell lines expressing the gene for firefly luciferase under control of a CRE-responsible promoter. Activation of V2 receptors induces the activation of the CRE-responsive promoter via cAMP increase, thereby inducing the expression of firefly luciferase. The light emitted by photoproteins of V1a cell lines as well as the light emitted by firefly luciferase of V2 cell lines corresponds to the activation or inhibition of the respective vasopressin receptor. The bioluminescence of the cell lines is detected using a suitable luminometer [Milligan G, Marshall F, Rees S, Trends in Pharmacological Sciences 17, 235-237 (1996)].
Vasopressin V2 Receptor Cell Lines:
On the day before the assay, the cells are plated out in culture medium (DMEM/F12, 2% FCS, 2 mM glutamine, 10 mM HEPES) in 384-well microtiter plates and kept in a cell incubator (96% humidity, 5% v/v CO2, 37° C.). On the day of the assay, test compounds in various concentrations and the agonist [Arg^8]-vasopressin at EC50 concentration are added together to the wells, and plates are incubated for 3 hours in a cell incubator. Upon addition of the cell lysis reagent Triton™ and the substrate luciferin, luminescence of firefly luciferase is measured in a luminometer.
(§3) Table 1A below lists individual IC50 values for the compounds of the invention (including racemic mixtures as well as separated enantiomers) that were obtained from cell lines transfected with the human V1a or V2 receptor: […]

human V1a receptor = molecular target: T2, human V1a receptor (Homo sapiens, UniProt P37288); assay: Cellular in vitro assay for determining vasopressin receptor activity (V1a, aequorin luminescence); format: cell-based; conditions: for IC50: CHO cell line transfected with human V1a receptor, [Arg8]-vasopressin at EC50 concentration, read-out: IC50 hV1a; for ratio IC50 hV2/hV1a: selectivity ratio IC50 hV2 / IC50 hV1a
T2 construct: expressed in transfected cells; host or cells: CHO K1 (ATCC), also stably transfected with a modified aequorin
T2 sequence (P37288 whole entry): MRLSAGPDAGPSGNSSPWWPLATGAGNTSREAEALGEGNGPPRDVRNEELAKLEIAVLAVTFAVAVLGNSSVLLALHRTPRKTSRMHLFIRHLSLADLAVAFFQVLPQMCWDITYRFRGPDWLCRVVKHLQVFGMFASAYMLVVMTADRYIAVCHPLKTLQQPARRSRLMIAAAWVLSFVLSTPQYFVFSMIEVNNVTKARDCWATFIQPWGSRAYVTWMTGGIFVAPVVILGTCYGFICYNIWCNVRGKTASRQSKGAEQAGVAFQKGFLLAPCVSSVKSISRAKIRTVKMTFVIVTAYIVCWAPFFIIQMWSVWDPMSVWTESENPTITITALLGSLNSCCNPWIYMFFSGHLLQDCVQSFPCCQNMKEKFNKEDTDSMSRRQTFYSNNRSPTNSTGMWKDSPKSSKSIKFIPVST
Description: as §1, §2
Vasopressin V1a Receptor Cell Lines:
On the day before the assay, the cells are plated out in culture medium (DMEM/F12, 2% FCS, 2 mM glutamine, 10 mM HEPES, 5 μg/ml coelenterazine) in 384-well microtiter plates and kept in a cell incubator (96% humidity, 5% v/v CO2, 37° C.). On the day of the assay, test compounds in various concentrations are placed for 10 minutes in the wells of the microtiter plate before the agonist [Arg^8]-vasopressin at EC50 concentration is added. The resulting light signal is measured immediately in a luminometer.
as §3

| Structure (SMILES) | IC50 (human V2 receptor) | IC50 (human V1a receptor) | ratio IC50 hV2/hV1a (human V1a receptor) |
| --- | --- | --- | --- |
| CC(O)c1nc(Cn2nc(-c3ccc(Cl)cc3)n(C[C@H](O)C(F)(F)F)c2=O)nn1-c1cncc(Cl)c1 (mixture of isomers) [Example 27, 5-(4-Chlorophenyl)-2-({1-(5-chloropyridin-3-yl)-5-(1hydroxyethyl)-1H-1,2,4triazol-3-yl}methyl)-4-[(2S)-3,3,3-trifluoro-2-hydroxypropyl]-2,4-dihydro-3H-1,2,4-triazol-3-one] | 18.7 nM | 12.3 nM | 1.5 |
| CC(O)c1nc(Cn2nc(-c3ccc(Cl)cc3)n(C[C@H](O)C(F)(F)F)c2=O)nn1-c1cccnc1 (single isomer, unassigned) [Example 26] | 325 nM | 34.3 nM | 9.5 |
| C[C@H](O)c1nc(Cn2nc(-c3ccc(Cl)cc3)n(C[C@H](O)C(F)(F)F)c2=O)nn1-c1ccc(Cl)cn1 [Example 15, 5-(4-Chlorophenyl)-2-({1-(5-chloropyridin-2-yl)-5-[(1S)-1-hydroxyethyl]-1H-1,2,4-triazol-3-yl}methyl)-4-[(2S)-3,3,3-trifluoro-2-hydroxypropyl]-2,4-dihydro-3H-1,2,4-triazol-3-one] | 11.7 nM | 8.25 nM | 1.4 |
| C[C@@H](O)c1nc(Cn2nc(-c3ccc(Cl)cc3)n(C[C@H](O)C(F)(F)F)c2=O)nn1-c1cnccc1Cl [Example 1, 5-(4-Chlorophenyl)-2-({1-(4-chloropyridin-3-yl)-5-[(1R)-1-hydroxyethyl]-1H-1,2,4-triazol-3-yl}methyl)-4-[(2S)-3,3,3-trifluoro-2-hydroxypropyl]-2,4-dihydro-3H-1,2,4-triazol-3-one] | 16 nM | 0.49 nM | 32.6 |
| C[C@H](O)c1nc(Cn2nc(-c3ccc(Cl)cc3)n(C[C@H](O)C(F)(F)F)c2=O)nn1-c1ccncc1 [Example 18, 5-(4-Chlorophenyl)-2-({5-[(1S)-1-hydroxyethyl]-1-(pyridin-4-yl)-1H-1,2,4-triazol-3-yl}methyl)-4-[(2S)-3,3,3-trifluoro-2-hydroxypropyl]-2,4-dihydro-3H-1,2,4-triazol-3-one] | 199 nM | 28.6 nM | 7.0 |
| C[C@H](O)c1nc(Cn2nc(-c3ccc(Cl)cc3)n(C[C@H](O)C(F)(F)F)c2=O)nn1-c1cnccc1Cl [Example 2, 5-(4-Chlorophenyl)-2-({1-(4-chloropyridin-3yl)-5-[(1S)-1-hydroxyethyl]-1H-1,2,4-triazol-3-yl}methyl)-4-[(2S)-3,3,3-trifluoro-2-hydroxypropyl]-2,4-dihydro-3H-1,2,4-triazol-3-one] | 5.65 nM | 0.53 nM | 10.7 |
| C[C@H](O)c1nc(Cn2nc(-c3ccc(Cl)cc3)n(C[C@H](O)C(F)(F)F)c2=O)nn1-c1c(Cl)cncc1Cl [Example 9, 5-(4-Chlorophenyl)-2-({1-(3,5-dichloropyridin-4-yl)-5-[(1S)-1-hydroxyethyl]-1H-1,2,4-triazol-3-yl}methyl)-4-[(2S)-3,3,3-trifluoro-2-hydroxypropyl]-2,4-dihydro-3H-1,2,4-triazol-3-one] | 24.5 nM | 4.13 nM | 5.9 |
| COc1cccnc1-n1nc(Cn2nc(-c3ccc(Cl)cc3)n(C[C@H](O)C(F)(F)F)c2=O)nc1[C@H](C)O [Example 8, 5-(4-Chlorophenyl)-2-({5-[(1S)-1-hydroxyethyl]-1-(3-methoxypyridin-2-yl)-1H-1,2,4-triazol-3-yl}methyl)-4-[(2S)-3,3,3-trifluoro-2-hydroxypropyl]-2,4-dihydro-3H-1,2,4-triazol-3-one] | 9.4 nM | 3.65 nM | 2.6 |
| C[C@@H](O)c1nc(Cn2nc(-c3ccc(Cl)cc3)n(C[C@H](O)C(F)(F)F)c2=O)nn1-c1ncccc1OC(F)(F)F [Example 16, 5-(4-Chlorophenyl)-2-({5[(1R)-1hydroxyethyl]-1-[3-(trifluoromethoxy)pyridin-2-yl]-1H-1,2,4-triazol-3yl}methyl)-4-[(2S)-3,3,3-trifluoro-2-hydroxypropyl]-2,4-dihydro-3H-1,2,4-triazol-3-one] | 387 nM | 13 nM | 29.7 |
| COc1nccnc1-n1nc(Cn2nc(-c3ccc(Cl)cc3)n(C[C@H](O)C(F)(F)F)c2=O)nc1[C@H](C)O [Example 21, 5-(4-Chlorophenyl)-2-({5-[(1S)-1-hydroxyethyl]-1-(3-methoxypyrazin-2-yl)-1H-1,2,4-triazol-3-yl}methyl)-4-[(2S)-3,3,3-trifluoro-2-hydroxypropyl]-2,4-dihydro-3H-1,2,4-triazol-3-one] | 46 nM | 49 nM | 0.9 |
| C[C@H](O)c1nc(Cn2nc(-c3ccc(Cl)cc3)n(C[C@H](O)C(F)(F)F)c2=O)nn1-c1ncccc1C(F)(F)F [Example 30, 5-(4-chlorophenyl)-2-({5-[(1S)-1-hydroxyethyl]-1-[3-(trifluoromethyl)pyridin-2-yl]-1H-1,2,4-triazol-3-yl}methyl)-4-[(2S)-3,3,3-trifluoro-2-hydroxypropyl]-2,4-dihydro-3H-1,2,4-triazol-3-one] | 48.5 nM | 3.3 nM | 14.9 |
| CC(O)c1nc(Cn2nc(-c3ccc(Cl)cc3)n(C[C@H](O)C(F)(F)F)c2=O)nn1-c1cncc(Cl)c1 (single isomer, unassigned) [Example 28] | 51.7 nM | 20.6 nM | 2.5 |

Results, then the compound that gave them:

| IC50 (human V2 receptor) | IC50 (human V1a receptor) | ratio IC50 hV2/hV1a (human V1a receptor) | Structure (SMILES) |
| --- | --- | --- | --- |
| 22.7 nM | 5.6 nM | 4.1 | C[C@H](O)c1nc(Cn2nc(-c3ccc(Cl)cc3)n(C[C@H](O)C(F)(F)F)c2=O)nn1-c1ncccc1F [Example 11, 5-(4-Chlorophenyl)-2-({1-(3-fluoropyridin-2-yl)-5-[(1S)-1-hydroxyethyl]-1H-1,2,4-triazol-3-yl}methyl)-4-[(2S)-3,3,3-trifluoro-2-hydroxypropyl]-2,4-dihydro-3H-1,2,4-triazol-3-one] |
| 27 nM | 1.35 nM | 20.0 | C[C@@H](O)c1nc(Cn2nc(-c3ccc(Cl)cc3)n(C[C@H](O)C(F)(F)F)c2=O)nn1-c1ncccc1Cl [Example 5, 5-(4-Chlorophenyl)-2-({1-(3-chloropyridin-2-yl)-5-[(1R)-1-hydroxyethyl]-1H-1,2,4-triazol-3-yl}methyl)-4-[(2S)-3,3,3-trifluoro-2-hydroxypropyl]-2,4-dihydro-3H-1,2,4-triazol-3-one] |
| 773 nM | 49.1 nM | 15.8 | CC(O)c1nc(Cn2nc(-c3ccc(Cl)cc3)n(C[C@H](O)C(F)(F)F)c2=O)nn1-c1cccnc1 (mixture of isomers) [Example 24] |
| 38.7 nM | 6.05 nM | 6.4 | C[C@@H](O)c1nc(Cn2nc(-c3ccc(Cl)cc3)n(C[C@H](O)C(F)(F)F)c2=O)nn1-c1ncccc1F [Example 13, 5-(4-Chlorophenyl)-2-({1-(3-fluoropyridin-2-yl)-5-[(1R)-1-hydroxyethyl]-1H-1,2,4-triazol-3-yl}methyl)-4-[(2S)-3,3,3-trifluoro-2-hydroxypropyl]-2,4-dihydro-3H-1,2,4-triazol-3-one] |
| 240 nM | 90.8 nM | 2.6 | CC(O)c1nc(Cn2nc(-c3ccc(Cl)cc3)n(C[C@H](O)C(F)(F)F)c2=O)nn1-c1cccnc1 (single isomer, unassigned) [Example 25] |
| 105 nM | 4.25 nM | 24.7 | C[C@H](O)c1nc(Cn2nc(-c3ccc(Cl)cc3)n(C[C@H](O)C(F)(F)F)c2=O)nn1-c1nccs1 [Example 10, 5-(4-Chlorophenyl)-2-({5-[(1S)-1-hydroxyethyl]-1-(1,3-thiazol-2-yl)-1H-1,2,4-triazol-3-yl}methyl)-4-[(2S)-3,3,3-trifluoro-2-hydroxypropyl]-2,4-dihydro-3H-1,2,4-triazol-3-one] |
